Test results from ChEMBL document CHEMBL2380302, “Synthesis of 3-O-propargylated betulinic acid and its 1,2,3-triazoles as potential apoptotic agents” (Eur J Med Chem, 2013).

What was measured:
[1] = tested on: PC-3; assay: Cytotoxicity against human PC3 cells at 30 uM after 48 hrs by SRB assay; assay type: functional; conditions: PC-3, 48 h, read-out: GI
[2] = tested on: HEp-2; assay: Cytotoxicity against human Hep2 cells at 30 uM after 48 hrs by SRB assay; assay type: functional; conditions: HEp-2, 48 h, read-out: GI
[3] = tested on: A549; assay: Cytotoxicity against human A549 cells at 10 uM after 48 hrs by SRB assay; assay type: functional; conditions: A549, 48 h, read-out: GI
[4] = tested on: HCT-15; assay: Cytotoxicity against human HCT15 cells at 10 uM after 48 hrs by SRB assay; assay type: functional; conditions: HCT-15, 48 h, read-out: GI
[5] = tested on: PC-3; assay: Cytotoxicity against human PC3 cells at 50 uM after 48 hrs by SRB assay; assay type: functional; conditions: PC-3, 48 h, read-out: GI
[6] = tested on: THP-1; assay: Cytotoxicity against human THP1 cells at 10 uM after 48 hrs by SRB assay; assay type: functional; conditions: THP-1, 48 h, read-out: GI
[7] = tested on: DU-145; assay: Cytotoxicity against human DU145 cells at 30 uM after 48 hrs by SRB assay; assay type: functional; conditions: DU-145, 48 h, read-out: GI
[8] = tested on: DU-145; assay: Cytotoxicity against human DU145 cells at 10 uM after 48 hrs by SRB assay; assay type: functional; conditions: DU-145, 48 h, read-out: GI
[9] = tested on: HCT-15; assay: Cytotoxicity against human HCT15 cells after 48 hrs by SRB assay; assay type: functional, cell-based; conditions: HCT-15, 48 h
[10] = tested on: A549; assay: Cytotoxicity against human A549 cells after 48 hrs by SRB assay; assay type: functional, cell-based; conditions: A549, 48 h
[11] = tested on: SF-295; assay: Cytotoxicity against human SF295 cells at 50 uM after 48 hrs by SRB assay; assay type: functional; conditions: SF-295, 48 h, read-out: GI
[12] = tested on: HEp-2; assay: Cytotoxicity against human Hep2 cells after 48 hrs by SRB assay; assay type: functional, cell-based; conditions: HEp-2, 48 h
[13] = tested on: MCF7; assay: Cytotoxicity against human MCF7 cells at 10 uM after 48 hrs by SRB assay; assay type: functional; conditions: MCF7, 48 h, read-out: GI
[14] = tested on: HCT-15; assay: Cytotoxicity against human HCT15 cells at 50 uM after 48 hrs by SRB assay; assay type: functional; conditions: HCT-15, 48 h, read-out: GI
[15] = tested on: A549; assay: Cytotoxicity against human A549 cells at 30 uM after 48 hrs by SRB assay; assay type: functional; conditions: A549, 48 h, read-out: GI
[16] = tested on: THP-1; assay: Cytotoxicity against human THP1 cells at 50 uM after 48 hrs by SRB assay; assay type: functional; conditions: THP-1, 48 h, read-out: GI
[17] = tested on: A549; assay: Cytotoxicity against human A549 cells at 50 uM after 48 hrs by SRB assay; assay type: functional; conditions: A549, 48 h, read-out: GI
[18] = tested on: MCF7; assay: Cytotoxicity against human MCF7 cells at 30 uM after 48 hrs by SRB assay; assay type: functional; conditions: MCF7, 48 h, read-out: GI
[19] = tested on: THP-1; assay: Cytotoxicity against human THP1 cells after 48 hrs by SRB assay; assay type: functional, cell-based; conditions: THP-1, 48 h
[20] = tested on: DU-145; assay: Cytotoxicity against human DU145 cells at 50 uM after 48 hrs by SRB assay; assay type: functional; conditions: DU-145, 48 h, read-out: GI
[21] = tested on: SF-295; assay: Cytotoxicity against human SF295 cells after 48 hrs by SRB assay; assay type: functional, cell-based; conditions: SF-295, 48 h
[22] = tested on: SF-295; assay: Cytotoxicity against human SF295 cells at 30 uM after 48 hrs by SRB assay; assay type: functional; conditions: SF-295, 48 h, read-out: GI
[23] = tested on: HL-60; assay: Cytotoxicity against human HL60 cells at 30 uM after 48 hrs by SRB assay; assay type: functional; conditions: HL-60, 48 h, read-out: GI
[24] = tested on: PC-3; assay: Cytotoxicity against human PC3 cells at 10 uM after 48 hrs by SRB assay; assay type: functional; conditions: PC-3, 48 h, read-out: GI
[25] = tested on: THP-1; assay: Cytotoxicity against human THP1 cells at 30 uM after 48 hrs by SRB assay; assay type: functional; conditions: THP-1, 48 h, read-out: GI
[26] = tested on: HEp-2; assay: Cytotoxicity against human Hep2 cells at 10 uM after 48 hrs by SRB assay; assay type: functional; conditions: HEp-2, 48 h, read-out: GI
[27] = tested on: HL-60; assay: Cytotoxicity against human HL60 cells at 50 uM after 48 hrs by SRB assay; assay type: functional; conditions: HL-60, 48 h, read-out: GI
[28] = tested on: HCT-15; assay: Cytotoxicity against human HCT15 cells at 30 uM after 48 hrs by SRB assay; assay type: functional; conditions: HCT-15, 48 h, read-out: GI
[29] = tested on: HEp-2; assay: Cytotoxicity against human Hep2 cells at 50 uM after 48 hrs by SRB assay; assay type: functional; conditions: HEp-2, 48 h, read-out: GI
[30] = tested on: DU-145; assay: Cytotoxicity against human DU145 cells after 48 hrs by SRB assay; assay type: functional, cell-based; conditions: DU-145, 48 h
[31] = tested on: HL-60; assay: Cytotoxicity against human HL60 cells after 48 hrs by SRB assay; assay type: functional, cell-based; conditions: HL-60, 48 h
[32] = tested on: MCF7; assay: Cytotoxicity against human MCF7 cells at 50 uM after 48 hrs by SRB assay; assay type: functional; conditions: MCF7, 48 h, read-out: GI
[33] = tested on: SF-295; assay: Cytotoxicity against human SF295 cells at 10 uM after 48 hrs by SRB assay; assay type: functional; conditions: SF-295, 48 h, read-out: GI
[34] = tested on: PC-3; assay: Cytotoxicity against human PC3 cells after 48 hrs by SRB assay; assay type: functional, cell-based; conditions: PC-3, 48 h
[35] = tested on: MCF7; assay: Cytotoxicity against human MCF7 cells after 48 hrs by SRB assay; assay type: functional, cell-based; conditions: MCF7, 48 h
[36] = tested on: HL-60; assay: Cytotoxicity against human HL60 cells at 10 uM after 48 hrs by SRB assay; assay type: functional; conditions: HL-60, 48 h, read-out: GI

Row | SMILES | inhibition of growth at 30 µM [1] [%] | inhibition of growth at 30 µM [2] [%] | inhibition of growth at 10 µM [3] [%] | inhibition of growth at 10 µM [4] [%] | inhibition of growth at 50 µM [5] [%] | inhibition of growth at 10 µM [6] [%] | inhibition of growth at 30 µM [7] [%] | inhibition of growth at 10 µM [8] [%] | IC50 [9] [µM] | IC50 [10] [µM] | inhibition of growth at 50 µM [11] [%] | IC50 [12] [µM] | inhibition of growth at 10 µM [13] [%] | inhibition of growth at 50 µM [14] [%] | inhibition of growth at 30 µM [15] [%] | inhibition of growth at 50 µM [16] [%] | inhibition of growth at 50 µM [17] [%] | inhibition of growth at 30 µM [18] [%] | IC50 [19] [µM] | inhibition of growth at 50 µM [20] [%] | other results
1 | C=C(C)[C@@H]1CC[C@]2(C(=O)O)CC[C@]3(C)[C@H](CC[C@@H]4[C@@]5(C)CC[C@H](OCc6cn(-c7ccc(C(=O)c8ccccc8)cc7)nn6)C(C)(C)[C@@H]5CC[C@]43C)[C@@H]12 | 4 | 26 | 32 | 43 | 3 | 3 | 9 | 6 | > 50 | 36 | 12 | > 50 | 29 | 46 | 37 | 91 | 58 | 25 | 44 | 50 | IC50 [21]: > 50 µM; inhibition of growth at 30 µM [22]: 19%; inhibition of growth at 30 µM [23]: 30%; inhibition of growth at 10 µM [24]: 6%; inhibition of growth at 30 µM [25]: 24%; inhibition of growth at 10 µM [26]: 25%; inhibition of growth at 50 µM [27]: 94%; inhibition of growth at 30 µM [28]: 41%; inhibition of growth at 50 µM [29]: 25%; IC50 [30]: 50 µM; IC50 [31]: 40 µM; inhibition of growth at 50 µM [32]: 44%; inhibition of growth at 10 µM [33]: 8%; IC50 [34]: > 50 µM; IC50 [35]: > 50 µM; inhibition of growth at 10 µM [36]: 6%
2 | C=C(C)[C@@H]1CC[C@]2(C(=O)O)CC[C@]3(C)[C@H](CC[C@@H]4[C@@]5(C)CC[C@H](OCc6cn(-c7ccccc7CO)nn6)C(C)(C)[C@@H]5CC[C@]43C)[C@@H]12 | 28 | 61 | 54 | 50 | 52 | 45 | 55 | 43 | 10 | 14 | 77 | 14 | 50 | 82 | 55 | 78 | 57 | 72 | 15 | 65 | IC50 [21]: 17 µM; inhibition of growth at 30 µM [22]: 72%; inhibition of growth at 30 µM [23]: 69%; inhibition of growth at 10 µM [24]: 10%; inhibition of growth at 30 µM [25]: 65%; inhibition of growth at 10 µM [26]: 45%; inhibition of growth at 50 µM [27]: 80%; inhibition of growth at 30 µM [28]: 80%; inhibition of growth at 50 µM [29]: 64%; IC50 [30]: 16 µM; IC50 [31]: 10 µM; inhibition of growth at 50 µM [32]: 80%; inhibition of growth at 10 µM [33]: 35%; IC50 [34]: 49 µM; IC50 [35]: 10 µM; inhibition of growth at 10 µM [36]: 50%
